Results reported in PMC8003975 (Cancers, 2021).

Assays:
[1] = set-up: method as in PMID 28441771, PMID 29231907, PMID 28587113; conditions: preclinical and clinical studies; cited from earlier work
Cal27 and JHU029 cells = assay: HNC cell cytotoxicity assay of other bitter melon compounds (Figure S1); format: cell-based, human; conditions: 48 hr
Method: Cal27, JHU029, JHU022 and NOK were seeded in 96 well-plate (5000 cells/well) and cells were treated with different concentration of M-I for 48 h. There were untreated control and DMSO treated vehicle control group for comparison. Cytotoxicity assay was performed using Cell Counting Kit-8 (Dojindo Molecular Technology, Rockville, MD, USA) according to manufacturer instruction.
Supplementary Materials: Momordicine-I, a Bitter
Activity in Head and Neck Cancer Involving c-Met
Figure S1. Cal27 and JHU029 ells were treated with momordicine-I (M-I), momordicosideK (MK), karavilageninD (KD) at indicated doses for 48 hr and cytotoxicity assay was performed. Small bar indicates standard error.
Figure S2. Whole blot for Figure 2A. […]

[2] = literature-reported biology of the tentatively identified metabolite; no reference given; cited from earlier work

| Compound | Reported Biology [2] | further results |
| --- | --- | --- |
| COc1cc2c(Oc3ccc(NC(=O)C4(C(=O)Nc5ccc(F)cc5)CC4)cc3F)ccnc2cc1OCCCN1CCOCC1 [Foretinib] |  | adverse side effects [1]: fatigue, hypertension, and gastrointestinal toxicities |
| CN1CCN(C2CCN(C(=O)Nc3cc(Oc4ccc(NC(=O)C5(C(=O)Nc6ccc(F)cc6)CC5)c(F)c4)ccn3)CC2)CC1 [Golvatinib] |  | adverse side effects [1]: supraventricular tachycardia, convulsion, and pulmonary embolism |
| C[C@H](C/C=C/C(C)(C)O)[C@H]1CC[C@@]2(C)[C@@H]3C=C[C@@]45OC(=O)[C@]3(CC[C@]12C)[C@@H]4CC[C@H](O)C5(C)C [KD, karavilagenin D] |  | amount required for ~40% cell death (Cal27 and JHU029 cells): > 50 µg/mL |
| CO[C@H]1C=C2[C@@H](CC[C@H](O[C@@H]3O[C@H](CO)[C@@H](O)[C@@H](O)[C@H]3O)C2(C)C)[C@]2(C)CC[C@]3(C)[C@@H]([C@H](C)C/C=C/C(C)(C)O)CC[C@@]3(C)[C@H]12 [Karaviloside III] | cytotoxic activity against Hep3B and HepG2 cell lines |  |
| C[C@H](C[C@@H](O)[C@H](O)C(C)(C)O)[C@H]1CC[C@@]2(C)[C@@H]3C=C[C@@]45OC[C@]3(CC[C@]12C)[C@@H]4CC[C@H](O[C@@H]1O[C@H](CO)[C@@H](O)[C@@H](O)[C@H]1O)C5(C)C [Karaviloside XI] | Antidiabetic |  |
| COC(C)(C)/C=C/C[C@@H](C)[C@H]1CC[C@@]2(C)[C@@H]3[C@@H](O[C@@H]4O[C@H](CO)[C@@H](O)[C@H](O)[C@H]4O)C=C4[C@@H](CC[C@H](O)C4(C)C)[C@]3(C=O)CC[C@]12C [MK, momordicoside K] |  | amount required for ~40% cell death (Cal27 and JHU029 cells): > 50 µg/mL |
| C[C@H](C/C=C/C(C)(C)O)[C@H]1CC[C@@]2(C)[C@@H]3[C@@H](O[C@@H]4O[C@H](CO)[C@@H](O)[C@H](O)[C@H]4O)C=C4[C@@H](CC[C@H](O)C4(C)C)[C@]3(C=O)CC[C@]12C [Momordicoside L] | Weak α-glucosidase inhibition |  |
| Sacranoside A | nitric oxide inhibitory effect |  |
